The test system of assay [1] is central benzodiazepine receptors. As to the kind of experiment: Central benzodiazepine receptor binding (test of Speth et al.). The following applies: 1000 nM of the compound. In a few lines:
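Values are percent inhibition of central benzodiazepine receptor binding at 1000 nM compound (initial single-point screen at 1.0E-09, 1.0E-07 and 1.0E-05 M). Speth et al. binding test; nonspecific binding defined with excess unlabelled ligand and subtracted from total.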

The target in assay [2] is T1, α2 subtype containing GABA-A receptors (Homo sapiens, UniProt P18507+P47869).
T1 construct: expressed in transfected cells; host or cells: Xenopus laevis oocytes, cRNA injected
T1 sequence (P47869 29-451): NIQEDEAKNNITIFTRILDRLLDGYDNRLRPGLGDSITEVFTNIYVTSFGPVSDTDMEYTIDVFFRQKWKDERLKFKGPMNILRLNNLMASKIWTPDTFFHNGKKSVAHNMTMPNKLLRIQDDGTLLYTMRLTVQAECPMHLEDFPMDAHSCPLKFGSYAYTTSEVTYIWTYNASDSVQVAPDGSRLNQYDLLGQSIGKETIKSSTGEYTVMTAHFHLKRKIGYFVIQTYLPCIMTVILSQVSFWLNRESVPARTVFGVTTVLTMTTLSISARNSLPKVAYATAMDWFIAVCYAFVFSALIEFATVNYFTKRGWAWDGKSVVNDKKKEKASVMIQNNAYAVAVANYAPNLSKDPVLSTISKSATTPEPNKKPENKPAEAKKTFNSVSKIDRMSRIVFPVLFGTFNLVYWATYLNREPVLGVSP
T1 sequence (P28472 26-473 partner): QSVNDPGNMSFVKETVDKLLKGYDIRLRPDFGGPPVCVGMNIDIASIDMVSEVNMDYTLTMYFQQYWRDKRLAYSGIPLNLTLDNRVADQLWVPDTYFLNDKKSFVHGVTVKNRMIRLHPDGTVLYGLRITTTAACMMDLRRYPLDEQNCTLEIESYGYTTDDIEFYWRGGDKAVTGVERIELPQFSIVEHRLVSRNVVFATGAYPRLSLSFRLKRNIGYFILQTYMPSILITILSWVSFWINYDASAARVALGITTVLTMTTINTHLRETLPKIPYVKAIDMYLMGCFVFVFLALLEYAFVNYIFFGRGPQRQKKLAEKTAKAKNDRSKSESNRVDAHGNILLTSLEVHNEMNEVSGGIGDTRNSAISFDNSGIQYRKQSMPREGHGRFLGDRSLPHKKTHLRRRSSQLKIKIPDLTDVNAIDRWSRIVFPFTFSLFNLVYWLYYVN
T1 sequence (P18507 40-475): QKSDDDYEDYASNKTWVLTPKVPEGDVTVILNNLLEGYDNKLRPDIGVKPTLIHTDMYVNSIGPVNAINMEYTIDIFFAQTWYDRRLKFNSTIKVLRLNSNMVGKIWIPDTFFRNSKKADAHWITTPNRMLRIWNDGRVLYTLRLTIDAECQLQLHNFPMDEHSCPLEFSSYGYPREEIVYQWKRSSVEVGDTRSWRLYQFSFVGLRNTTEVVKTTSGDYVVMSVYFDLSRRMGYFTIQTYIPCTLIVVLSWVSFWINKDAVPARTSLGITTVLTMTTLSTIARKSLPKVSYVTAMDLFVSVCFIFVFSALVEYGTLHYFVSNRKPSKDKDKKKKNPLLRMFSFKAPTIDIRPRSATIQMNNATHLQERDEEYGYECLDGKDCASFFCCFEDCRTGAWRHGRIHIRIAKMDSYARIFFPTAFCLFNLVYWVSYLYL
The experiment in a line: Two-electrode voltage clamp electrophysiology in Xenopus oocytes, potentiation of GABA EC20 response, α2. The format is cell-based. The conditions noted are these: 100 nM compound; for activation at 0.1 µM: read-out: Percentage of potentiation alpha2. The gist of the method: (§1)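 TEVC, oocytes expressing human αx/β3/γ2L GABA-A; Vh −80 mV; ND96 pH 7.5 perfusion. 3 × 20-s GABA EC20 (60 μM) baseline → 1 μM CDP standard → compound 100 nM. Low-current or poorly γ2L-incorporating oocytes excluded.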
A general note: Two-electrode voltage clamp holds a large cell at a set potential and records current.

Assay [3] has as its target T2, α3 subtype containing GABA-A receptors (Homo sapiens, UniProt P18507+P34903).
T2 construct: expressed in transfected cells; host or cells: Xenopus laevis oocytes, cRNA injected
As to the kind of experiment: Two-electrode voltage clamp electrophysiology in Xenopus oocytes, potentiation of GABA EC20 response, α3. The format is cell-based. The following applies: 100 nM compound; for activation at 0.1 µM: read-out: Percentage of potentiation alpha3. How it is done: (§2) Electrophysiology protocol: Oocytes were prepared from adult female Xenopus laevis frogs. cRNA encoding human α1, α2, α3, α5, β3 and γ2L GABAA receptor subunits was injected into the cytoplasm of stage 5 or 6 oocytes using the Robocyte Robot (Multi Channel Systems, Reutlingen, Germany). Two-electrode voltage clamp recordings were made in 96-well plates using the Robocyte Robot. Oocytes were impaled using recording heads with two glass electrodes containing 1.5 M potassium acetate and 0.5 M KCl and held at a membrane potential of −80 mV. Oocytes were continually perfused with a ND96 solution (96 mM NaCl, 2 mM KCl, 0.1 mM CaCl2, and 5 mM HEPES, pH 7.5) using a Gilson 222 XL Liquid Handler and Gilson Minipuls 3 Peristaltic Pump (Gilson Medical Electronics, Middleton, Wis., USA). The protocol consisted of three 20-s applications of GABA that gave a 20% of the maximum response (EC20: 60 μM) to allow for headroom to determine a baseline GABA response. To assess the potentiation, oocytes were first exposed to a single 1 μM chlordiazepoxide (CDP) as a potentiation standard. Oocytes with insufficient expression levels (currents below threshold) or insufficient γ2L subunit incorporation (judged by rapid desensitization upon GABA application, or by insufficient potentiation by CDP) were not included in analysis. Following this control application, a given oocyte was exposed to test compounds at 100 nM concentrations. Only one concentration of one compound was tested per oocyte. […] One skilled in the art will recognize that subtypes contribute to the effects of GABA-A modulators. Such that compounds favoring different subtypes can have different therapeutic effects. The magnitude of modulation, for example, partial modulators can influence the effects in vivo. “++” indicates a greater modulation that “+” so that at any given subtype “++” inducates a greater amount of modulation for that subtype. In some embodiments, modulation favoring alpha 1 relative to alpha2 and/or alpha 3 can have sedative hypnotic effects. In other embodiments, compounds with reduced selectivity of alpha 1 can express anxiolytic effects with less sedation. Compounds with selectivity for alpha 5 can have memory/cognition enhancing effects.

Assay [4] deals with T3, α5 subtype containing GABA-A receptors (Homo sapiens, UniProt P18507+P31644).
T3 construct: expressed in transfected cells; host or cells: Xenopus laevis oocytes, cRNA injected
T3 sequence (P31644 32-462): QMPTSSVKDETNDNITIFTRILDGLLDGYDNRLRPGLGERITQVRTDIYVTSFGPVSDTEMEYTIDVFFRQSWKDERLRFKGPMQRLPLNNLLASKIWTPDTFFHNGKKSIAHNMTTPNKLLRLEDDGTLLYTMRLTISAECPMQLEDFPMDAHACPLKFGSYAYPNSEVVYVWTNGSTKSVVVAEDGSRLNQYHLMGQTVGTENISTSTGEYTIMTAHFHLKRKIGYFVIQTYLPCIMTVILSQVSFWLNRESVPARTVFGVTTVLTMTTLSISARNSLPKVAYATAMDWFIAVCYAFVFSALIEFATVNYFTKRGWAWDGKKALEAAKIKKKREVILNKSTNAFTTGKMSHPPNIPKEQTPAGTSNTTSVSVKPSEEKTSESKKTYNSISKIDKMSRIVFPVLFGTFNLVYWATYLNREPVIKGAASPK
T3 sequence (P28472 26-473 partner): as the sequence (P28472 26-473 partner) above
T3 sequence (P18507 40-475): as the sequence (P18507 40-475) above
As to the kind of experiment: Two-electrode voltage clamp electrophysiology in Xenopus oocytes, potentiation of GABA EC20 response, α5. The format is cell-based. The following applies: 100 nM compound; for activation at 0.1 µM: read-out: Percentage of potentiation alpha5. On the procedure: as §2

A further assay concerns Wistar rats. As to the kind of experiment: Vogel conflict test. Format: in vivo. The conditions noted are these: rat, 60 min before test, 3 minute test. On the procedure: Vogel Conflict Test Protocol: The Vogel conflict test is an animal model of anxiety described by Vogel et al. (1971). In this test, water deprived animals are placed in a cage with free access to a drinking bottle. Whenever the animal drinks, an electric shock is administered. Animals punished during drinking rapidly cease to drink. Anxiolytic drugs decrease the effect of punishment and increase the number of shocks accepted by the rats in this conflict situation. Male Wistar rats were used in these studies. Rats were deprived of water for approximately 48 hours and then placed individually into a transparent Plexiglas enclosure with a floor consisting of stainless steel bars spaced 1 cm apart. The back wall of the enclosure was made of opaque Plexiglas thereby concealing the observer from the experimental animal. In the center of the opposite wall, 5 cm above the floor, a metal water spout protruded into the cage and was connected to one pole of a shock generator. The other pole of the shock generator was connected to the metal grid floor. The rat is left to explore until it finds the water spout. Then, every time it drinks, it receives an electric shock (1.7 mA, 1 sec duration) 2 seconds after it starts drinking The number of punished drinks is counted during a 3 minute test. Ten rats are studied per treatment group. Clobazam (64 mg/kg) was used as the positive control. Compounds of the present invention, vehicle (45% hydroxypropyl beta-cyclodextrin) and clobazam were administered orally to all groups (n=10 […] per group) 60 minutes prior to behavioral testing. All data were analyzed using unpaired Student's t-tests. An effect was considered significance if p<0.05.

Assay [5] addresses T4, α1 subtype containing GABA-A receptors (Homo sapiens, UniProt P14867+P18507).
T4 construct: expressed in transfected cells; host or cells: Xenopus laevis oocytes, cRNA injected
The experiment in a line: Two-electrode voltage clamp electrophysiology in Xenopus oocytes, potentiation of GABA EC20 response, α1. The format is cell-based. The following applies: 100 nM compound; for activation at 0.1 µM: read-out: Percentage of potentiation alpha1. In a few lines: as §1

Bounds are passed on as bounds.

T4 sequence (P14867 28-456): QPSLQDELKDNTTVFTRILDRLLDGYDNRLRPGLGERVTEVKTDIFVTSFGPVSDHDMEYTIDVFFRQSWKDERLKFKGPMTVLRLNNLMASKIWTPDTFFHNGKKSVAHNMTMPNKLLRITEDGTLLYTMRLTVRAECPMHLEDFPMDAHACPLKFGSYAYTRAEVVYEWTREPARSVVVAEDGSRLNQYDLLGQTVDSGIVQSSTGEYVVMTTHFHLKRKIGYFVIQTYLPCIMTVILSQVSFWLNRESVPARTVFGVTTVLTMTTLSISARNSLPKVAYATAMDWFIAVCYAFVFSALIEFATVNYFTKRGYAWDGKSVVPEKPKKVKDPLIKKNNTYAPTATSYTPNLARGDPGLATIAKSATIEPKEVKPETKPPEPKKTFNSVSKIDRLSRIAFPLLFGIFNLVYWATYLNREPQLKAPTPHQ
T4 sequence (P28472 26-473 partner): as the sequence (P28472 26-473 partner) above
T4 sequence (P18507 40-475): as the sequence (P18507 40-475) above
T2 sequence (P34903 29-492): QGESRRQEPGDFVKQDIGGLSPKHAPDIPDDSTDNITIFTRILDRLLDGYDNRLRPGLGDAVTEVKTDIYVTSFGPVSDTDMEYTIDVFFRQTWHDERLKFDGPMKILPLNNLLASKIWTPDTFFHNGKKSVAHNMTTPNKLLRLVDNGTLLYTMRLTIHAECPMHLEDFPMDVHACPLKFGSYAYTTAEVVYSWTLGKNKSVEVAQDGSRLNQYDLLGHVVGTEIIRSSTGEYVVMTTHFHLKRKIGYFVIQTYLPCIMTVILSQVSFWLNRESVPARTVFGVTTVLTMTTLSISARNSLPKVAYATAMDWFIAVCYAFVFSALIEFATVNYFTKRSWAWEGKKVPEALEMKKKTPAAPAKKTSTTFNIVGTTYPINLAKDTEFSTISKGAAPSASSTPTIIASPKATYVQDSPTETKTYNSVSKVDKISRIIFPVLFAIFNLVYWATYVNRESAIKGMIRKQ
T2 sequence (P28472 26-473 partner): as the sequence (P28472 26-473 partner) above
T2 sequence (P18507 40-475): as the sequence (P18507 40-475) above

With `Cc1cc(Cl)nc(NCc2c(-c3ccc(Cl)cc3)nc3ccc(Cl)cn23)n1` [Compound 170, 4-chloro-N-((6-chloro-2-(4-chlorophenyl)imidazo[1,2-a]pyridin-3-yl)methyl)-6-methylpyrimidin-2-amine], the “% Inhibition at 1000 nM for CBZD” value in assay [1] is listed as “++ (percentage of inhibition of central BZD site binding is greater than 80% in the presence of 1000 nM of the compound)”. Moreover, the activation at 0.1 µM in assay [2] is 10 to 50%; in assay [3], 10 to 50%; in assay [4], -10 to 10%; in assay [5], 10 to 50%. The “Number of Shocks Mean ± S.E.M.” value with Wistar rats (0.3 mg/kg PO) is on record as 5.1 ± 0.9; with Wistar rats (1 mg/kg PO), 5.6 ± 0.9; with Wistar rats (3 mg/kg PO), 6.5 ± 1.0.
In the case of `Clc1ccc(-c2nc3ccccn3c2Cn2ccnn2)cc1` [Compound 40, 2-(4-Chloro-phenyl)-3-[1,2,3]triazol-1-ylmethyl-imidazo[1,2-a]pyridine], in assay [1], the “% Inhibition at 1000 nM for CBZD” value is reported as “++ (percentage of inhibition of central BZD site binding is greater than 80% in the presence of 1000 nM of the compound)”. The activation at 0.1 µM in assay [2] was 10 to 50%; in assay [5] it was -10 to 10%. Also, the entries for the “Number of Shocks Mean ± S.E.M.” value with Wistar rats (1 mg/kg PO), in the assay on Wistar rats (3 mg/kg PO) and in the assay on Wistar rats (10 mg/kg PO) were 2.4 ± 0.4, 3.4 ± 0.7 and 4.4 ± 0.7, respectively.
As to `Cc1ccc(-c2nc3ccc(C)cn3c2Cn2cnc3ncccc32)cc1` [Compound 15, 1-((6-Methyl-2-p-tolylH-imidazo[1,2-a]pyridin-3-yl)methyl)-1H-imidazo[4,5-b]pyridine], the “% Inhibition at 1000 nM for CBZD” value in assay [1] is “++ (percentage of inhibition of central BZD site binding is greater than 80% in the presence of 1000 nM of the compound)”. Moreover, the “Percentage of potentiation alpha2” value in assay [2] was “+ (percentage of potentiation is greater than or equal to 10% but less than 50% in the presence of 100 nM of the compound)”. Also, the “Percentage of potentiation alpha3” value in assay [3] is “+ (percentage of potentiation is greater than or equal to 10% but less than 50% in the presence of 100 nM of the compound)”. Moreover, the “Percentage of potentiation alpha5” value in assay [4] is 0 (percentage of potentiation is between about 10% to about −10%). In assay [5], the “Percentage of potentiation alpha1” value is listed as “+ (percentage of potentiation is greater than or equal to 10% but less than 50% in the presence of 100 nM of the compound)”.
In the case of `O=C1C=C(N2CCC(O)C2)CN1Cc1c(-c2ccc(Cl)cc2)nc2ccccn12` (stereo not drawn) [Compound 240, 1-((2-(4-chlorophenyl)imidazo[1,2-a]pyridin-3-yl)methyl)-4-(3-hydroxypyrrolidin-1-yl)-1H-pyrrol-2(5H)-one], in assay [1], the “% Inhibition at 1000 nM for CBZD” value is “++ (percentage of inhibition of central BZD site binding is greater than 80% in the presence of 1000 nM of the compound)”. The activation at 0.1 µM in assay [2] is 10 to 50%; in assay [3], -10 to 10%; in assay [4] it was -10 to 10%; in assay [5] it was ≥ 50%.

The values are drawn from patent publication US8497278B2, “Imidazo[1,2-a]pyridine compounds” (priority 2008, dated 2013).
